This is an account of results in US12194039B2, “Methods of treating heart failure by administering omecamtiv mecarbil” (Cytokinetics, Inc., priority 2020, dated 2025).

Read-outs that look alike come from different tables or passages of the source.

In series [1] the test system is patients with heart failure. The note with it: result in words; cited from earlier work.
Where [2] appears, read: sensitive P-gp substrate digoxin 0.5 mg SD, with OM 50 mg SD.
Setting [3] is: sensitive BCRP substrate rosuvastatin 10 mg SD, with OM 50 mg SD.
The mark [4] stands for this setting: sensitive CYP3A substrate midazolam 5 mg SD, with OM 25 mg BID.
Setting [5] is: sensitive MATE 1/2K substrate metformin 850 mg SD, with OM 25 mg BID.

Consider `COC(=O)Nc1c(N)nc(-c2nn(Cc3ccccc3F)c3ncc(F)cc23)nc1N` [vericiguat], for which the “Treatment efficacy at higher NT-proBNP concentrations” value in series [1] is “declined”.

`C[C@H]1O[C@@H](O[C@H]2[C@@H](O)C[C@H](O[C@H]3[C@@H](O)C[C@H](O[C@H]4CC[C@@]5(C)[C@H](CC[C@@H]6[C@@H]5C[C@@H](O)[C@]5(C)[C@@H](C7=CC(=O)OC7)CC[C@]65O)C4)O[C@@H]3C)O[C@@H]2C)C[C@H](O)[C@@H]1O` [Digoxin]: under setting [2], the “% Change of co-administered drug Cmax (↑ = increase)” value is “↑8%”, the “Mean Ratio of co-administered drug AUC (90% CI)” value was 1.06 (0.99-1.14) and the “Mean Ratio of co-administered drug Cmax (90% CI)” value is recorded as 1.08 (0.92-1.26).

Consider `CC(C)c1nc(N(C)S(C)(=O)=O)nc(-c2ccc(F)cc2)c1/C=C/[C@@H](O)C[C@@H](O)CC(=O)O` [Rosuvastatin], for which, under setting [3], the “% Change of co-administered drug AUC (↑ = increase)” value is “↑27%”, the “% Change of co-administered drug Cmax (↑ = increase)” value is recorded as “↑45%”, the “Mean Ratio of co-administered drug AUC (90% CI)” value is 1.27 (1.14-1.42) and the “Mean Ratio of co-administered drug Cmax (90% CI)” value is given as 1.54 (1.33-1.79).

Take `Cc1ncc2n1-c1ccc(Cl)cc1C(c1ccccc1F)=NC2` [Midazolam]: under setting [4], the “% Change of co-administered drug AUC (↓ = decrease)” value is “↓18%”, the “% Change of co-administered drug Cmax (↓ = decrease)” value is on record as “↓10%”, the “Mean Ratio of co-administered drug AUC (90% CI)” value was 0.82 (0.71-0.94) and the “Mean Ratio of co-administered drug Cmax (90% CI)” value is 0.90 (0.75-1.08).

As to `CN(C)C(=N)N=C(N)N` [Metformin], under setting [5], the “Mean Ratio of co-administered drug AUC (90% CI)” value is listed as 0.99 (0.92-1.05) and the “Mean Ratio of co-administered drug Cmax (90% CI)” value is 1.10 (1.01-1.21).
